Measurements reported in patent US12678511B2, “Peptide and use thereof” (Kansai Medical University Educational Corgoration, priority 2019, dated 2026).
Peptide text beside a SMILES is read from it. * marks the point of attachment. 5FAM = O=C1OC2(c3ccc(O)cc3Oc3cc(O)ccc32)c2ccc(C(=O)*)cc21

Tests used:
[1] = tested on: cancer stroma (fibrous stroma) of tumor tissue, BxPC3 cells and hMSC transplanted; test: Selective absorption in scirrhous pancreatic cancer model mouse (tissue analysis); type: in vivo; conditions: 200 μg intravenous, 30 minutes after injection, FIG. 7B, 7C
Source text: A scirrhous pancreatic cancer model mouse having scirrhous carcinoma that forms abundant cancer stroma was produced in accordance with the method disclosed in Reference Document 1 (Saito K et al., “Stromal mesenchymal stem cells facilitate pancreatic cancer progression by regulating specific secretory molecules through mutual cellular interaction.”, Journal of Cancer, Vol. 9, No. 16, pp. 2916-2929, 2018). Specifically, 6-week old NOD/SCID mice (CLEA Japan Inc., Japan) were raised under pathogen-free conditions. A cell mixture containing BxPC3 cells (1×10^5 cells) and hMSC (1×10^5 cells) was injected either subcutaneously or into the abdominal cavity of each mouse. By raising the mice for 6 weeks from the time of cell injection, scirrhous pancreatic cancer model mice were obtained having an abundantly developed cancer stroma that imitates the tissue in a human pancreatic cancer patient (see FIG. 7A).
[FAM]-tandem MSCPP106 (200 μg) was injected intravenously into each obtained scirrhous carcinoma model mouse. Subsequently, the pharmacokinetics of the peptide 30 minutes after the intravenous injection were analyzed by tissue analysis of the freshly dissected specimen of the peptide-administered mouse. FIG. 7B is a series of bright-field images (left) and fluorescent images (right) of various tissues and tumor tissues resected from the scirrhous carcinoma model mouse. […]

[2] = tested on: cancer stroma of the stomach scirrhous carcinoma (HSC58 cells and hMSC); test: Absorption into cancer stroma of scirrhous stomach cancer mouse model; type: in vivo; conditions: 300 μg intravenous, 60 minutes after injection, FIG. 10B
Source text: Stomach poorly differentiated scirrhous adenocarcinoma, which is an example of a typical scirrhous carcinoma, is classified by visual classification into type 4 stomach cancer, and this type 4 stomach cancer has an extremely poor prognosis, with a five-year survival rate of about at least 4% but not more than 16%. Accordingly, in order to investigate the application of [FAM]-tandem MSCPP106 to the CAF that develop in the scirrhous stroma of cancer other than pancreatic cancer, a scirrhous stomach cancer mouse transplanted model was produced, and the absorption into scirrhous cancer stroma other than pancreatic cancer was investigated. With the exceptions of using human stomach poorly differentiated adenocarcinoma HSC58 cells instead of the BxPC3 cells, and rearing the mouse for 40 days from the time of cell injection, the same method as Example 7 was used to obtain a scirrhous stomach cancer mouse model. The HSC58 cells are a low metastatic human scirrhous stomach cancer cell line. Subsequently, [FAM]-tandem MSCPP106 (300 μg) was injected intravenously into the obtained scirrhous cancer mouse model, and the in-vivo absorption pharmacokinetics of the peptide 60 minutes after the intravenous injection were analyzed by tissue analysis of the freshly dissected specimen of the peptide-administered mouse. […]

- absorption into the cancer stroma (fibrous stroma) inside tumor tissue [1]: strong absorption
- absorption into the cancer stroma of the stomach scirrhous carcinoma [2]: strong selective absorption
Compound: CC(C)C[C@H](NC(=O)[C@H](Cc1c[nH]cn1)NC(=O)[C@H](CCCNC(=N)N)NC(=O)[C@H](Cc1ccccc1)NC(=O)[C@H](CC(C)C)NC(=O)[C@H](CCC(=O)O)NC(=O)[C@H](C)NC(=O)[C@H](CS)NC(=O)[C@H](CCCCN)NC(=O)CNC(=O)[C@H](CC(C)C)NC(=O)[C@H](Cc1c[nH]cn1)NC(=O)[C@H](CCCNC(=N)N)NC(=O)[C@H](Cc1ccccc1)NC(=O)[C@H](CC(C)C)NC(=O)[C@H](CCC(=O)O)NC(=O)[C@H](C)NC(=O)[C@H](CS)NC(=O)[C@H](CCCCN)NC(=O)c1ccc2c(c1)C(=O)OC21c2ccc(O)cc2Oc2cc(O)ccc21)C(=O)O [[FAM]-tandem MSCPP106] (5FAM-KCAELFRHLGKCAELFRHL-OH)
